These results are taken from US6685617B1, “Inhibitors of α4β1 mediated cell adhesion” (Pharmacia & Upjohn Company, priority 1998, dated 2004).

T2 sequence (P13612 34-1032): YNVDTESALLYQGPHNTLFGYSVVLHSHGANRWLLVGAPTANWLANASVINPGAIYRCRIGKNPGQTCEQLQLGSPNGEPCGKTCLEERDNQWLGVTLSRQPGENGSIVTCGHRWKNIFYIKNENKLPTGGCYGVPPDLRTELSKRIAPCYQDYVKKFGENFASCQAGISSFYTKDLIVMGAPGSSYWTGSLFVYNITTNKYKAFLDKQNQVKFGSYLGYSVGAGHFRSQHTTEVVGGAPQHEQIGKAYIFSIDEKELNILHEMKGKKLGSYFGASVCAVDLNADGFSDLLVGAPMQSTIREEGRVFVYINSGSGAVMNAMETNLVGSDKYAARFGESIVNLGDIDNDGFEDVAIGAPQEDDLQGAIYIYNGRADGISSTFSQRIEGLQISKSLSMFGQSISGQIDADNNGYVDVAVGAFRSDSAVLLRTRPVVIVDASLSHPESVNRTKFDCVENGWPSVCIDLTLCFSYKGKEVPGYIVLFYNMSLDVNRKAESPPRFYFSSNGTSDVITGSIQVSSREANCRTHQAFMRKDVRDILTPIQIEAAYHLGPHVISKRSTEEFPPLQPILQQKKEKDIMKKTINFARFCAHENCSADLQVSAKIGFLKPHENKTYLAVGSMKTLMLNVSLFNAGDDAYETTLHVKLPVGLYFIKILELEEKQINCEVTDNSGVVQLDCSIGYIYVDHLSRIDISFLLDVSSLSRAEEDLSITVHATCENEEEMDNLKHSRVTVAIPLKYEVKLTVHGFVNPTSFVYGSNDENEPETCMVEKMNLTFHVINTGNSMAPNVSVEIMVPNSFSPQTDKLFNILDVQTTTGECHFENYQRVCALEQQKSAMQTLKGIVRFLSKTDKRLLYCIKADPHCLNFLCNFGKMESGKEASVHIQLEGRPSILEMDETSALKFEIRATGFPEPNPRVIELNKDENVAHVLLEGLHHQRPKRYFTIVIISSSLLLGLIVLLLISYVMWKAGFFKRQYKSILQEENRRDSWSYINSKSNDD
T2 sequence (P05556 21-798): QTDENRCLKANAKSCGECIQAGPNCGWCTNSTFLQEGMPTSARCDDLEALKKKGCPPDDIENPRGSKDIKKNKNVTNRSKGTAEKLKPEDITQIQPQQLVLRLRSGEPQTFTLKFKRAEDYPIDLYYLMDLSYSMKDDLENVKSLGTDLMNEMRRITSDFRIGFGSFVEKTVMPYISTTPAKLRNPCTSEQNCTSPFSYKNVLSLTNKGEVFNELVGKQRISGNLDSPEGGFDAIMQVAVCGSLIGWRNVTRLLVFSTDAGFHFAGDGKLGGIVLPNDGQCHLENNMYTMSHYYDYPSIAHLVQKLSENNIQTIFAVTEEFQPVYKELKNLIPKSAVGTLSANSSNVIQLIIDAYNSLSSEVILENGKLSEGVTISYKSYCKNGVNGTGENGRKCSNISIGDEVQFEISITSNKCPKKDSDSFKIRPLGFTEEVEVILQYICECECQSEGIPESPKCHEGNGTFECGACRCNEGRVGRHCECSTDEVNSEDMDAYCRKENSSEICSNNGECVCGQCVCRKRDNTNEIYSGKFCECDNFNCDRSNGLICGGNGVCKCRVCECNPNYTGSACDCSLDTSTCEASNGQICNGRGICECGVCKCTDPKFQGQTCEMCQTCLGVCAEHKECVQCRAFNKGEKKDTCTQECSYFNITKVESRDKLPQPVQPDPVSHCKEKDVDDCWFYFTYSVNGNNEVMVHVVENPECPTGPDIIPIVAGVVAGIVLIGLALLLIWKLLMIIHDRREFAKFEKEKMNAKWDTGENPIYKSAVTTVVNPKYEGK

The target in one assay is T1, α4β1 integrin (Jurkat T-cell adhesion to IL-1 stimulated endothelial cell monolayers) (Homo sapiens, UniProt P05556+P13612).
T1 construct: a T-cell line, Jurkat, known to express the α4β1 integrin; host or cells: Jurkat T-cell line
T1 sequence (P13612 34-1032): as the sequence (P13612 34-1032) above
T1 sequence (P05556 21-798): as the sequence (P05556 21-798) above
Kind of assay: Jurkat-endothelial cell adhesion assay (Jurkat EC). The format is cell-based. Particulars: Jurkat cells on IL-1 stimulated human umbilical vein endothelial cells; read-out: JK/EC (Jurkat EC Assay IC50 value range). Here is the method:
Jurkat-endothelial Cell Adhesion Assay:
The following assay established the activity of the present compounds in inhibiting β1-mediated cell adhesion in a representative in vitro system. This assay measures the adhesive interactions of a T-cell line, Jurkat, known to express the α4β1 integrin, to endothelial monolayers in the presence of test compounds. The test compounds were added in increasing concentrations to T-cells and then the T-cell compound mixture was added to IL-1 stimulated endothelial cell monolayers. The plates were incubated, washed and the percentage of attached cells was quantitated.
Human umbilical vein endothelial cells were purchased from Clonetics (San Diego, Calif.) at passage number 2. The cells were grown on 0.5% porcine skin gelatin pre-coated flasks (Sigma, St. Louis Mo.) in EGM-UV media (Clonetics, San Diego, Calif.) supplemented with 10% fetal bovine serum. Cells are refed every 2-3 days reaching confluence by day 4 to 6. […] The endothelial cells are not used following passage 6.
The T-cell line Jurkat was obtained from American Type Tissue Culture Collection (Rockville, Md.) and the cells were cultured in RPMI containing 10% fetal calf serum. The cells were washed twice in Hank's Balanced Salt Solution (HBSS) and resuspended in Dulbecco's Minimal Eagle's Media (DMEM) containing 2.5 mg/ml Human Serum Albumin (HSA). Jurkat cells (1×10^6 cells/ml) were stained with 10 ng/ml BCECF-AM (Molecular Probes, Eugene, Oreg.)) in HBSS without phenol red. The cells were loaded with BCECF for 60 minutes in the dark at 370C, washed 2 times, and resuspended in DMEM-HSA solution.
Confluent endothelial monolayers, grown in 96-well tissue culture plates, were stimulated for 4 hr. at 37° C. with 0.1 ng/ml (˜50 U/ml) recombinant IL-1 (Amgen, Thousand Oaks, Calif.). Following this incubation, the monolayers were washed twice with HBSS and 0.1 ml of DMEM−HSA solution was added. Jurkat cells (5×10^5 cells) were combined with the appropriate concentration of the test compound and 0.1 ml of the Jurkat cell-compound mixture was added to the endothelial cell monolayers. Generally, 100, 20, 5 and 1.25 μM compound concentrations were tested. […] The plates were placed on ice for 5 minutes to allow for Jurkat cell settling and the plates were incubated at 37° C. for 20 minutes. Following this incubation, the monolayers were washed twice with PBS containing 1 mM calcium chloride and 1 mM magnesium chloride and the plates were read using a Millipore Cytofluor 2300 (Marlboro, Mass.). Fluorescence in each well was measured as Arbitrary Fluorescence Units and percent adhesion in the absence of compound was adjusted to 100% and the % adhesion in the presence of compound was calculated. Monolayers were also fixed in 3% paraformaldehyde and evaluated microscopically to verify the adhesion. This procedure is a modification of a previously published method (Cardarelli et al., J. Biol. Chem. 269:18668-18673 (1994)).
On to `CC(=O)CCC(=O)N1CCCC[C@H]1C(=O)N[C@@H](Cc1ccc(NC(=O)c2c(Cl)cccc2Cl)cc1)C(=O)O` [Example 179], for which the IC50 was 250 to 1000 nM.

As to `COc1ccc(C(=O)N2CCCC[C@H]2C(=O)N[C@@H](Cc2ccc(NC(=O)c3c(Cl)cccc3Cl)cc2)C(=O)O)cc1OC` [Example 180], the IC50 is at least 1000 nM.

In the case of `O=C(O)c1ccc2cc(C(=O)N3CCCC[C@H]3C(=O)N[C@@H](Cc3ccc(NC(=O)c4c(Cl)cccc4Cl)cc3)C(=O)O)ccc2c1` [Example 183], the IC50 is at least 1000 nM.

`O=C(O)CNC(=O)N1CCCC(C(=O)N[C@@H](Cc2ccc(NC(=O)c3c(Cl)cccc3Cl)cc2)C(=O)O)C1` (some centres unmarked) [Example 202]: the IC50 is at least 1000 nM.

Regarding `O=C(O)c1cccc(C(=O)N2CCCC(C(=O)N[C@@H](Cc3ccc(NC(=O)c4c(Cl)cccc4Cl)cc3)C(=O)O)C2)c1` (some centres unmarked) [Example 205], the IC50 is 250 to 1000 nM.

Take `O=C(O)c1ccc(NC(=O)N2CCCC(C(=O)N[C@@H](Cc3ccc(NC(=O)c4c(Cl)cccc4Cl)cc3)C(=O)O)C2)cc1` (some centres unmarked) [Example 208]: the IC50 is at least 1000 nM.

As for `O=C(O)CCC(=O)N1CCC(C(=O)N[C@@H](Cc2ccc(NC(=O)c3c(Cl)cccc3Cl)cc2)C(=O)O)CC1` [Example 209], the IC50 is at least 1000 nM.

On to `O=C(O)CC1(CC(=O)N2CCC(C(=O)N[C@@H](Cc3ccc(NC(=O)c4c(Cl)cccc4Cl)cc3)C(=O)O)CC2)CCCC1` [Example 210], for which the IC50 is at least 1000 nM.

For `CC(C)(CC(=O)O)CC(=O)N1CCC(C(=O)N[C@@H](Cc2ccc(NC(=O)c3c(Cl)cccc3Cl)cc2)C(=O)O)CC1` [Example 211], the IC50 is at least 1000 nM.

Regarding `O=C(O)/C=C\C(=O)N1CCC(C(=O)N[C@@H](Cc2ccc(NC(=O)c3c(Cl)cccc3Cl)cc2)C(=O)O)CC1` [Example 212], the IC50 is at least 1000 nM.

For `O=C(O)/C=C/C(=O)N1CCC(C(=O)N[C@@H](Cc2ccc(NC(=O)c3c(Cl)cccc3Cl)cc2)C(=O)O)CC1` [Example 213], the IC50 was at least 1000 nM.

Turning to `COCCC(=O)N1CCC(C(=O)N[C@@H](Cc2ccc(NC(=O)c3c(Cl)cccc3Cl)cc2)C(=O)O)CC1` [Example 214], the IC50 was at least 1000 nM.

`O=C(Nc1ccc(C[C@H](NC(=O)C2CCN(C(=O)C3CCCC(C(=O)O)C3)CC2)C(=O)O)cc1)c1c(Cl)cccc1Cl` (some centres unmarked) [Example 215]: the IC50 was at least 1000 nM.

Regarding `O=C(O)CNC(=O)N1CCC(C(=O)N[C@@H](Cc2ccc(NC(=O)c3c(Cl)cccc3Cl)cc2)C(=O)O)CC1` [Example 217], the IC50 was at least 1000 nM.

Consider `COc1ccc(C(=O)N2CCC(C(=O)N[C@@H](Cc3ccc(NC(=O)c4c(Cl)cccc4Cl)cc3)C(=O)O)CC2)cc1OC` [Example 218], for which the IC50 is at least 1000 nM.

As for `O=C(O)c1ccccc1C(=O)N1CCC(C(=O)N[C@@H](Cc2ccc(NC(=O)c3c(Cl)cccc3Cl)cc2)C(=O)O)CC1` [Example 219], the IC50 was at least 1000 nM.

For the molecule `O=C(O)c1ccc2cc(C(=O)N3CCC(C(=O)N[C@@H](Cc4ccc(NC(=O)c5c(Cl)cccc5Cl)cc4)C(=O)O)CC3)ccc2c1` [Example 221], the IC50 was at least 1000 nM.

Another assay concerns the target T2, α4β1 integrin (Jurkat cell adhesion to immobilized CS-1 derived peptide CLHPGEILDVPST) (Homo sapiens, UniProt P05556+P13612).
T2 construct: 100 μl of Jurkat cells (2.5×10^6 cells/ml) in DMEM plus BSA; host or cells: Jurkat T-cell line
Kind of assay: Jurkat-CS-1 assay. To be noted: Jurkat cells on CS-1 peptide coated plates; read-out: JK/CS-1 (Jurkat CS-1 Assay IC50 value range). The class given is cell-based. Here is the method: The CS-1 derived peptide, CLHPGEILDVPST, and the scrambled control peptide, CLHGPIELVSDPT, were synthesized on a Beckman 990 synthesizer using t-Boc methodology. The peptides were immobilized onto microtiter plates using the heterobifunctional crosslinker 3-(2-pyridyldithio)propionic acid N-hydroxysuccinimide ester (SPDP) as reported by Pierschbacher et al., Proc. Natl. Acad. USA, 80:1224-1227 (1983). Microtiter plates were coated with 20 μg/ml HSA for 2 hr. at room temperature, washed once with PBS and derivatized with 10 μg/ml SPDP for 1 hr. After washing, 100 μl of a 100 μg/ml cysteine containing peptide solution which had been recently dissolved was added to the wells and allowed to crosslink to the plates overnight at 4° C. Unbound peptide was removed from plates by washing with PBS. To block non-reacted sites, the plates are coated with 100 μl of a 2.5 mg/ml BSA solution in PBS for 1 hr. at 37° C. 100 μl of Jurkat cells (2.5×10^6 cells/ml) in DMEM plus BSA (2.5 mg/ml) was mixed with an appropriate concentration of the compound to be tested and the mixture was added to peptide coated dishes and incubated for 1 hr. at 37° C. Generally 100, 20, 5 and 1.25 μM concentrations of the compound were tested.
Following this incubation the plates were washed once with PBS and the attached cells were fixed with 3% paraformaldehyde in PBS and stained with 0.5% toluidine blue in 3.7% formaldehyde. The cells were stained overnight at room temperature and the optical density at 590 nm of toluidine blue stained cells was determined using a vertical pathway spectrophotometer to quantitate attachment (VMAX Kinetic Microplate Reader, Molecular Devices, Menlo Park, Calif.). This procedure is a modification of a previously published method (Cardarelli et al, J. Biol. Chem., 269:18668-18673 (1994) and Cardarelli et al, Proc. Natl. Acad. Sci. USA, 83:2647-2651 (1986)).
Turning to `O=C(Nc1ccc(C[C@H](NC(=O)C2CSC3COC(=O)N32)C(=O)O)cc1)c1c(Cl)cccc1Cl` (single isomer, unassigned) [Example 281, 4-[(2,6-Dichlorobenzoyl)amino]-N-[(tetrahydro-5-oxo-5H-thiazolo[3,2-c]oxazol-3-yl)carbonyl]-L-phenylalanine], the IC50 was in the range of 50 to 750 nM.

In the case of `O=C(Nc1ccc(C[C@H](NC(=O)C2CSC3COC(=O)N32)C(=O)O)cc1)c1c(Cl)cccc1Cl` (single isomer, unassigned) [Example 282, 4-[(2,6-Dichlorobenzoyl)amino]-N-[(tetrahydro-5-oxo-5H-thiazolo[3,2-c]oxazol-3-yl)carbonyl]-L-phenylalanine], the IC50 was at most 50 nM.

For the molecule `CCOC(=O)N1CSCC1C(=O)N[C@@H](Cc1ccc(NC(=O)c2c(Cl)cccc2Cl)nc1)C(=O)O` (stereo in doubt) [Example 290, [S-(R*,R*)]-4-[[[1-Carboxy-2-[2-[(2,6-dichlorobenzoyl)amino]-5-pyridinyl]ethyl]amino]carbonyl]-3-thiazolidinecarboxylic Acid Ethyl Ester], the IC50 was at most 50 nM.

Turning to `CCOC(=O)N1CSC[C@@H]1C(=O)N[C@@H](Cc1ccc(NC(=O)c2ccccc2)cc1)C(=O)O` [Example 268, (4S)-4-[[[(1S)-1-Carboxy-2-[4-[(benzoyl)amino]phenyl]ethyl]amino]carbonyl]-3-thiazolidinecarboxylic Acid 3-Ethyl Ester], the IC50 is at least 750 nM.

Consider `CCOC(=O)N1CSC[C@@H]1C(=O)N[C@@H](Cc1ccc(NC(C)=O)cc1)C(=O)O` [Example 269, (4S)-4-[[[(1S)-1-Carboxy-2-[4-[(acetyl)amino]phenyl]ethyl]amino]carbonyl]-3-thiazolidinecarboxylic Acid 3-Ethyl Ester], for which the IC50 is at least 750 nM.

Consider `CCOC(=O)N1CSC[C@@H]1C(=O)N[C@@H](Cc1ccc(NC(=O)CCc2ccccc2)cc1)C(=O)O` [Example 270, (4S)-4-[[[(1S)-1-Carboxy-2-[4-[(3-phenylpropanoyl)amino]phenyl]ethyl]amino]carbonyl]-3-thiazolidinecarboxylic Acid 3-Ethyl ester], for which the IC50 fell in the range of 50 to 750 nM.

With `CCOC(=O)N1CSC[C@@H]1C(=O)N[C@@H](Cc1ccc(NC(=O)c2cccnc2)cc1)C(=O)O` [Example 271, (4S)-4-[[[(1S)-1-Carboxy-2-[4-[(3-pyridinylcarbonyl)amino]phenyl]ethyl]amino]carbonyl]-3-thiazolidinecarboxylic Acid 3-Ethyl Ester], the IC50 lay within 50 to 750 nM.

With `CCOC(=O)N1CSC[C@@H]1C(=O)N[C@@H](Cc1ccc(NC(=O)c2ccc(OC)cc2)cc1)C(=O)O` [Example 272, (4S)-4-[[[(1S)-1-Carboxy-2-[4-[(4-methoxybenzoyl)amino]phenyl]ethyl]amino]carbonyl]-3-thiazolidinecarboxylic Acid 3-Ethyl Ester], the IC50 fell in the range of 50 to 750 nM.

Take `CCOC(=O)N1CSC[C@@H]1C(=O)N[C@@H](Cc1ccc(NC(=O)c2ccc(C)cc2)cc1)C(=O)O` [Example 273, (4S)-4-[[[(1S)-1-Carboxy-2-[4-[(4-methylbenzoyl)amino]phenyl]ethyl]amino]carbonyl]-3-thiazolidinecarboxylic Acid 3-Ethyl Ester]: the IC50 is at least 750 nM.
